Experimental data from US12551479B2, “Acyl-protein thioesterase inhibitor for the treatment and/or prevention of Huntington's disease” (UNIVERSITÉ GRENOBLE ALPES, priority 2019, dated 2026).

Assays:
[1] = tested on: mouse cortical neuronal cells; assay: MTT toxicity assay; format: cell-based
Protocol: Toxicity was assessed using the tetrazolium salt MTT assay. The cortical culture was treated every day as previously described. After treatment, a solution of MTT (Life M6494) was added to the culture medium at 1.2 mM and incubated for 3 hours. The reaction was terminated by adding the solvent solution (4 mM HCl, 0.1% NP40 in isopropanol). The absorbance value was measured at 595 and 690 nm.

Hdh^CAG140/+ mice = assay: Horizontal Ladder test; format: in vivo, mouse; settings: Hdh^CAG/+ mice, 0.3 mg/kg/day subcutaneous infusion; values similar to wild-type
Protocol: Mice littermates were grouped into mixed treatment groups. Males and females were 6 months of age at the beginning of the treatment. For each specific test, all experimental groups were tested on the same day, during the light phase and between Days 16 and 28 of treatment. Prior to testing, mice were acclimatized to the test room for a period of 30 minutes. Treatments were randomly assigned and behavioral tests were performed 12 days before the end of the delivery of the treatment. […] Mice were excluded from analysis if their performance was calculated as a significant outlier by the Grubb test. One mouse was excluded based on these criteria. Mouse weights were measured prior to the start of treatment and until the end of testing.
A horizontal ladder is used to assess forelimb and hindlimb placement and coordination. The horizontal ladder is composed of two clear Plexiglas walls (69.50×15 cm) containing metal rungs (0.2 cm diameter) irregularly spaced (between 0.5 and 2 cm apart). Mice were habituated to walk on a horizontal ladder during two consecutive days (3 trials per day). Then the mice were tested (3 trials) with a different pattern than the two days of habituation. Test trials were videorecorded, and the motor performance as well as the latency to complete the task were quantified. Data are expressed as the average of the 3 trials.

O=C(CN1CCN(C(=O)c2ccco2)CC1)Nc1cc(C(F)(F)F)ccc1Cl [ML-348]
cell viability (MTT) ([1]; 100 nM, 1 μM or 10 μM): no effect | toxicity (MTT) ([1]; 1 μM, for 12 days): no toxicity | toxicity (MTT) ([1]; 100 μM, over 48 hours): toxic | toxicity (MTT) ([1]; wild-type cortical cultures, 1 μM for 10 days): no toxicity | average error score (Hdh^CAG140/+ mice): significant improvement | average time to cross the horizontal ladder (Hdh^CAG140/+ mice): significant improvement
